The test system of assay [1] is VEGF protein. Briefly: Vitreal VEGF protein level in STZ-induced diabetic Long Evans rats. It counts as in vivo. The conditions noted are these: STZ diabetic LE rats, mini-osmotic pump, STZ/Veh 228, Veh/Veh 164. The protocol: Long Evans (LE) rats were treated with vehicle or streptozotocin (1×, 65 mg/kg). After 7 days, vehicle treated rats were treated further with a second vehicle and STZ treated diabetic rats were treated either with a second vehicle, Brimonidine (1 mg/kg/d) as a positive control, Panagonist A (300 ug/kg/d) or panagonist B (300 ug or 3 mg/kg/d) for another 3 wks using mini-osmotic pumps. Note that the synthesis of these two panagonists is known in the art. The panagonists have the following structure [drawing 1]
At end of the study, animals were sacrificed & vitreal VEGF protein level was measured as described earlier.
Long Evans rats were treated with vehicle or streptozotocin (1×, 65 mg/kg). After 7 days, vehicle treated rats were treated further with a second vehicle and STZ treated diabetic rats were treated either with a second vehicle, Brimonidine (1 mg/kg/d) as a positive control, or the Alpha 2B selective agonist, [drawing 2] (“2B Agonist”) (300 ug or 3 mg/kg/d) for another 3 wks using mini-osmotic pumps At end of the study, animals were sacrificed & vitreal VEGF protein level was measured as described earlier.

Assay [2] has as its system VEGF protein. Briefly: VEGF protein levels in vitreous fluid of non-diabetic BN rats. In kind it is in vivo, Brown Norway (BN) rats. The conditions noted are these: Mem 10 mg/kg/day or Bri 1 mg/kg/day for 28 days.
The test system of assay [3] is VEGF protein. Briefly: VEGF protein levels in retina of STZ-treated BN rats. The conditions noted are these: 5 wks, Mem 10 mg/kg/day or Bri 1 mg/kg/day for 4 wks after 1 wk of STZ, STZ/Veh 719, Veh/Veh 482. It counts as in vivo, Brown Norway (BN) rats. The method, then: (§1) Male Brown Norway (BN) rats were randomized into 4 different groups based on basal glucose and body weight. Using one time IP injection, one group of animals was treated with vehicle and other 3 groups were treated with 65 mg/kg streptozotocin (STZ). Within two days after STZ-treatment, blood glucose of the animals reached to 400 mg/dl from 100 mg/dl. After one wk of vehicle or STZ treatment, vehicle treated animals were further treated with a second vehicle for another 4 wks (Veh/Veh-35 D) and STZ treated animals were treated with either a second vehicle (STZ-35D/Veh-28D), Memantine, Mem (10 mg/kg/day) (STZ-35D/Mem-28D) or Brimonidine, Bri (1 mg/kg/day) for 4 wks (STZ-35D/Bri-28D) using mini osmotic pumps.

Assay [4] has as its system VEGF protein. Briefly: VEGF protein levels in vitreous fluid of STZ-treated BN rats. It counts as in vivo, Brown Norway (BN) rats. The conditions noted are these: 5 wks, Mem 10 mg/kg/day or Bri 1 mg/kg/day for 4 wks after 1 wk of STZ, STZ/Veh 259, Veh/Veh 157. The protocol:
as §1

Assay [5] relates to blood-retinal barrier (BRB). Briefly: Retinal BRB breakdown in STZ-treated BN rats. It counts as in vivo, Brown Norway (BN) rats. The conditions noted are these: 5 wks, Mem 10 mg/kg/day or Bri 1 mg/kg/day for 4 wks after 1 wk of STZ, STZ/Veh 22.9, Veh/Veh 9.1. The method, then: as §1
Setting [6] is: 300 ug/kg/d for 3 wks (1 wk after STZ).
Where [7] appears, read: 3 mg/kg/d for 3 wks (1 wk after STZ).

Here are results for five compounds from US20070203144A1, “Use of Memantine and Brimonidine to Attenuate Vitreoretinal Vascular Endothelial Growth Factor (VEGF) Protein Levels in Animals” (Allergan, Inc., priority 2006, published 2007).

On to `S=c1[nH]cc(CC2CC=CC2)[nH]1` [2B Agonist], for which the “VEGF protein levels in vitreous fluid” value in assay [1] (setting [6]) is 148 pg/mL; in assay [1] (setting [7]), 130 pg/mL.

As to `Brc1c(NC2=NCCN2)ccc2nccnc12` [Brimonidine, brimonidine], the “difference in vitreous fluid VEGF protein levels vs vehicle” value in assay [2] was “no difference”. Moreover, the figures for the “VEGF protein levels in vitreous fluid” value in assay [1] (1 mg/kg/d for 3 wks (1 wk after STZ)) and in assay [4] were 133 pg/mL and 140 pg/mL, respectively. In addition, the “VEGF protein levels in retina” value in assay [3] worked out at 455 pg/mg protein. Besides, the “BRB breakdown in retina” value in assay [5] is listed as 12.2 ul plasma/g retina dry weight/hr.

On to `CC12CC3CC(C)(C1)CC(N)(C3)C2` [Memantine, memantine], for which the “difference in vitreous fluid VEGF protein levels vs vehicle” value in assay [2] is “no difference”. In assay [3], the “VEGF protein levels in retina” value stood at 475 pg/mg protein. The “VEGF protein levels in vitreous fluid” value in assay [4] turned out to be 160 pg/mL. Also, the “BRB breakdown in retina” value in assay [5] is given as 11.9 ul plasma/g retina dry weight/hr.

With `c1cnc2c(c1)CC[C@@H](Cc1c[nH]cn1)C2` [panagonist A], the “VEGF protein levels in vitreous fluid” value in assay [1] (setting [6]) was 133 pg/mL.

For `Cc1cccc([C@@H](C)c2c[nH]c(=S)[nH]2)c1C` [panagonist B], the figures for the “VEGF protein levels in vitreous fluid” value in assay [1] (setting [6]) and in assay [1] (setting [7]) were 122 pg/mL and 109 pg/mL, respectively.
